“Also recorded” adds a separate entry of the source. Where a name gives a salt, the structure may show the parent alone.
How the values were obtained:
Assay type in all cases: physicochemical
[1] = Hausner ratio and compressibility index of 25HC3S salts; details: listed as 25HC3S zinc
Experimental: Although there are some variations in the method of determining the compressibility index and Hausner ratio, the basic procedure is to measure the unsettled apparent volume, VO, and the final tapped volume, Vf, of the powder after tapping the material until no further volume changes occur. The compressibility index and the Hausner ratio are calculated as follows: […]
Both the Hausner ratio and the compressibility index are empirically established. The Hausner ratio and compressibility index are not absolute properties of a material; its value can vary depending on the methodology used to determine them. In this case, since the 14 salts of 25HC3S were measured the same way, the relative values should be accurate.
Table C3, from USP <1174> Powder Flow, describes the flow character of the powder based on the compressibility index and Hausner ratio values.
Powder was carefully poured into a 5 mL glass graduated cylinder (to contain) until it was close to or at 5.0 mL. This initial volume was recorded as Vo. The graduated cylinder was tapped on a hard surface for 200 times and the volume was recorded. The cylinder was tapped 100 times more, and the final volume Vf was recorded. Typically, the volume after 200 taps was identical to after 300 taps, or within 0.1 mL.

[2] = Appearance (color, clumping, flowability) of stored 25HC3S salts; details: for Appearance: listed as 25HC3S zinc
Experimental: (§1) Approximately 25 mg of each crystalline 25HC3S salt was added to 20 mL glass vials and each powder weight was recorded. Four vials were prepared for each salt and stored at 2-8° C. or 80° C. according to Table B2. The samples were scheduled initially to pull for testing at 3 weeks and 6 weeks' time points.
(§2) For those […] salts, the remaining vials stored at 2-8° C. for 3 weeks were allocated for storage at 60° C. for 1 week. Additional stability data was generated according to Table B3.
For appearance, each unopened vial was visually examined for color, clumping, and flowability.

[3] = Solid-state chemical stability of 25HC3S salts at 2-8° C., 60° C. and 80° C. (HPLC assay and degradation products)
Experimental: as §1, §2
Based on the molecular weights, and expected UV response factors of each salt used in this study, the expected analytical sample concentrations were within the range of the 25HC3S sodium reference standards (0.75 mg/mL to 1.25 mg/mL as 25HC3S sodium salt). However, due to the lower-than-expected purity of the 25HC3S benzathine salt, an additional standard was prepared at 0.125 mg/mL as 25HC3S sodium salt.
Samples were prepared by pipetting 20 mL of 100% methanol into each vial and mixing well, with sonication and vortexing to fully dissolve the samples for HPLC analysis.
Samples were prepared by pipetting 20 mL of 100% methanol into each vial followed by two rounds of sonication for 30 minutes, with 30 seconds of vortexing before and after each round. Sample aliquots were then centrifuged at 10,000 RPM for 10 minutes and the supernatant collected for HPLC analysis.
Samples were prepared by pipetting 20 mL of 100% methanol into each vial, followed by 5 seconds of vortexing. The undissolved powder in methanol was quantitatively transferred into 200 mL volumetric flasks. The sample vials were rinsed 3 times with methanol, with each rinsate transferred to the 200 mL volumetric flasks. The volumetric flasks were filled to about 90% volume and sonicated for 10 minutes to fully dissolve the powder. The flasks were filled to volume with methanol, mixed well and aliquots collected for HPLC analysis.
HPLC analysis was performed.

[4] = Overall rank order of powder flowability (angle of repose and Hausner ratio)
Description: Table C5 was generated by adding the relative rank order of the 25HC3S salts for angle of repose and Hausner ratio results, and creating an Over All Rank Order of the salts powder flowability. The salts with the lower overall rank order score had better powder flowability.

[5] = Solubility of 25HC3S salts after one day at room temperature (HPLC, as free acid); details: one day
Experimental: These fluids were prepared per the instruction listed by Biorelevant (Biorelevant.com). Each buffer concentrate was diluted with water and mixed well. FaSSIF, FeSSIF, FaSSGF powder was added to each buffer and mixed to completely dissolve the powder. Buffers were stored at room temperature and used within 48 hours of preparation.
(§3) 25HC3S salts were weighed in 8 mL or 4 mL glass vials with Teflon coated screw caps. Aliquots of each solvent were added to each sample and vortexed for about one minute until excess solid remained. Samples were placed on shaker at room temperature with 210 motion per minute shaking.
(§4) After one day, samples were pulled and checked if excess solid was present. About 1.5 mL aliquot of each sample was centrifuged at 12000 rpm for 12 to 15 minutes. […] Aliquots of the top clear solution of each centrifuged sample in MeOH, EtOH, IPA and ACN were diluted with diluent (water:MeOH 95:5) and assayed by HPLC. Samples of the salts in aqueous media were assayed by HPLC without dilution.
All solubility sample solutions of 25HC3S salts were determined using HPLC. A linear standard curve was constructed using standards with concentration between 11 μg/mL to 1.5 mg/mL as free acid forcing the curve to origin. Solubilities are reported as mg/mL free acid 25HC3S. Detection limit (LOD) of the HPLC method was calculated as 0.0007 mg/mL.

[6] = Final pH of the solubility sample solutions in aqueous media
Experimental: as §3, §4
5.1 Solubility of 25HC3S Salts in Aqueous Media

[7] = 80° C., 3 weeks, listed as 25HC3S Zinc
[8] = rank, lower is better flow, listed as 25HC3S zinc

Q: With `CC(CCCC(C)(C)O)C1CCC2C3CC=C4CC(OS(=O)(=O)O)CCC4(C)C3CCC12C` (stereo not drawn) [Salt #3] as the molecule, how does the “Compressibility Index” value ([1]; Table C3 heads this index in %) read?
A: The value was 28.

Q: And the “Hausner Ratio” value [1]?
A: The value was 1.39.

Q: And the Appearance ([2]; 2-8° C., 3 wk)?
A: The Appearance was “White, free flowing powder with clumping”.

Q: And the Appearance ([2]; 60° C., 1 wk (after 3 weeks at 2-8° C.))?
A: The Appearance was “Light brown, melted material stuck to”.

Q: And the “Appearance after 3 weeks at 80° C.” value ([2]; 80° C., 3 weeks)?
A: Its value is “completely burned”.

Q: What about the Appearance ([2]; 80° C., 3 wk) of the same molecule?
A: The Appearance was “Dark brown, melted material stuck to”.

Q: And the Assay ([3]; 2-8° C., 3 wk, 30240 min, listed as 25HC3S zinc)?
A: Its Assay is 92.6 % w/w.

Q: What about the “% Impurities, Total” value ([3]; 2-8° C., 3 wk, ND = Not Detected, listed as 25HC3S zinc) of the same molecule?
A: The value was 0.6%.

Q: And the “Overall physical and chemical stability (in words)” value ([3]; 2-8° C., 60° C., 80° C.)?
A: The value was “least physically and chemically stable”.

Q: And the “Overall physical and chemical stability (in words)” value ([3]; 2-8° C., 60° C., 80° C., listed as zinc)?
A: Its value is “least stable”.

Q: And the “% Impurities, 25-HC” value ([3]; 25-Hydroxy-Cholesterol, 2-8° C., 3 wk, ND = Not Detected, listed as 25HC3S zinc)?
A: The value was 0.2%.

Q: And the “Physical and chemical solid-state stability (comments)” value ([3]; 60° C., 1 week, listed as 25HC3S Zinc)?
A: Its value is “Totally decomposed after 1 weck at 60 °C”.

Q: And the Assay ([3]; 60° C., 1 wk (after 3 weeks at 2-8° C.), 10080 min, listed as 25HC3S zinc, 10080 min)?
A: Its Assay is 0.0 % w/w.

Q: And the “% Recovery of 2-8° C./3 wk vs 60° C./1 wk” value ([3]; 60° C., 1 wk, 10080 min, listed as 25HC3S zinc)?
A: The value was 0.0%.

Q: And the “% Impurities, Total” value ([3]; 60° C., 1 wk, ND = Not Detected, listed as 25HC3S zinc)?
A: Its value is 100.0%.

Q: And the “Physical and chemical solid-state stability (comments)” value [3, 7]?
A: The value was “Totally decomposed after 1 weck at 60 °C and after 3 weeks at 80 °C”.

Q: What about the “dissolution of decomposed samples in diluent / degradants observed (comments)” value [3, 7] of the same molecule?
A: The value was “decomposed samples at 3-weeks at 80 °C did not dissolve in the diluent,; also recorded: therefore, no degradants were observed”.

Q: What about the “% Recovery” value ([3]; 80° C., 3 wk, vs 2-8° C., 30240 min, listed as 25HC3S zinc, 30240 min) of the same molecule?
A: The value was 0.0%.

Q: And the Assay ([3]; 80° C., 3 wk, 30240 min, listed as 25HC3S zinc)?
A: Its Assay is 0.0 % w/w.

Q: And the “Stability after 1 week at 60° C. (in words)” value ([3]; solid state, 60° C., 1 week (after 3 weeks at 2-8° C.))?
A: Its value is “totally decomposed”.

Q: What about the “Stability after 3 weeks at 80° C. (in words)” value ([3]; solid state, 80° C., 3 weeks) of the same molecule?
A: The value was “totally decomposed”.

Q: And the “Powder flowability, overall (in words)” value ([4]; angle of repose and compressibility index/Hausner ratio combined, listed as zinc)?
A: Its value is “next group”.

Q: And the “Angle of Repose Rank Order” value [4, 8]?
A: The value was 10.

Q: What about the “Hausner Ratio Rank Order” value [4, 8] of the same molecule?
A: Its value is 5.

Q: And the “Overall Rank Order (Total Score)” value ([4]; sum of both ranks, lower is better flow, listed as 25HC3S zinc)?
A: Its value is 15.

Q: What about the “Solubility in 5% Dextrose” value ([5]; 5% dextrose, room temperature, as free acid, ND = not detected, detection limit 0.7 μg/mL, 1440 min, listed as 25HC3S zinc) of the same molecule?
A: The value was 13 µg/mL.

Q: And the “Solubility in ethanol (in words)” value ([5]; EtOH, room temperature, listed as crystalline 25HC3S zinc)?
A: The value was “relatively high solubility”.

Q: What about the “Solubility in FaSSGF (in words)” value ([5]; FaSSGF, room temperature, listed as crystalline 25HC3S zinc) of the same molecule?
A: Its value is “low solubility”.

Q: What about the “Solubility in FaSSIF” value ([5]; FaSSIF, room temperature, as free acid, 1440 min, listed as 25HC3S zinc) of the same molecule?
A: Its value is 133 µg/mL.

Q: What about the “Solubility in FaSSGF” value ([5]; Fasted State Simulated Gastric Fluid, pH 1.6, room temperature, as free acid, LOD 0.0007 mg/mL) of the same molecule?
A: Its value is “no solubilized drug was detected”.

Q: What about the “Solubility in FeSSIF” value ([5]; FeSSIF, room temperature, as free acid, 1440 min, listed as 25HC3S zinc) of the same molecule?
A: The value was 673 µg/mL.

Q: And the “Solubility in ACN” value ([5]; acetonitrile, room temperature, as free acid, 1440 min, listed as 25HC3S zinc)?
A: The value was 100 µg/mL.

Q: And the “Solubility in EtOH” value ([5]; ethanol, room temperature, as free acid, ≥ = did not reach saturation, 1440 min, listed as 25HC3S zinc)?
A: Its value is 31200 µg/mL.

Q: What about the “Solubility in IPA” value ([5]; isopropyl alcohol, room temperature, as free acid, 1440 min, listed as 25HC3S zinc) of the same molecule?
A: Its value is 3500 µg/mL.

Q: And the “Solubility in MeOH” value ([5]; methanol, room temperature, as free acid, ≥ = did not reach saturation, 1440 min, listed as 25HC3S zinc)?
A: Its value is 39500 µg/mL.

Q: What about the “Solubility in saline / 0.9% sodium chloride (in words)” value ([5]; saline, room temperature, listed as crystalline 25HC3S zinc) of the same molecule?
A: Its value is “low solubility”.

Q: What about the “Solubility in H2O” value ([5]; water, room temperature, as free acid, ND = not detected, detection limit 0.7 μg/mL, 1440 min, listed as 25HC3S zinc) of the same molecule?
A: The value was 6 µg/mL.

Q: What about the “pH of the solubility sample, 0.9% Sodium Chloride” value ([6]; 0.9% sodium chloride (blank 5.8), listed as 25HC3S zinc) of the same molecule?
A: Its value is 6.4.

Q: What about the “pH of solubility sample solution in 0.9% sodium chloride” value ([6]; 0.9% sodium chloride (medium pH 5.8)) of the same molecule?
A: Its value is 6.4.

Q: And the “pH of the solubility sample, 5% Dextrose” value ([6]; 5% dextrose (blank 4.7), listed as 25HC3S zinc)?
A: Its value is 7.1.

Q: And the “pH of the solubility sample, FaSSGF” value ([6]; FaSSGF (blank 1.5, 1.6))?
A: The value was 1.6.

Q: What about the “pH of the solubility sample, FaSSIF” value ([6]; FaSSIF (blank 6.5, 6.5), listed as 25HC3S zinc) of the same molecule?
A: Its value is 6.5.

Q: And the “pH of the solubility sample, FeSSIF” value ([6]; FeSSIF (blank 4.9, 5.0))?
A: The value was 5.0.

Q: And the “pH of solubility sample solution in water” value ([6]; water)?
A: Its value is 7.4.

Q: What about the “pH of the solubility sample, Water” value ([6]; water (blank 6.3), listed as 25HC3S zinc) of the same molecule?
A: Its value is 7.4.
